The record followed here is a melting point compilation (Tetko et al.; mined from patent text by program, amines drawn as free bases though some values may be those of a salt).

A word on the melting point: it is the temperature of the solid-liquid transition.

For `O=[N+]([O-])c1ccc2onc(-c3ccccc3O)c2c1`, the melting point was in the range of 172 to 176 °C.

Take `COc1ccc(CN2C(CN3CCOCC3)=Cc3ccsc3S2(=O)=O)cc1`: the melting point was in the range of 112 to 114 °C.

For the molecule `CCCC(OC(=O)c1ccncc1)C(=O)O` (racemic), the melting point lay within 152 to 153 °C.

`O=c1c2ccc(F)cc2nc(C(S)c2ncnc3[nH]cnc23)n1-c1ccccc1Cl` (centres undefined) displayed a melting point of 151 to 154 °C.

Take `CSC1C(=O)Nc2ccc(Oc3ccccc3)cc21` (centres undefined): the melting point lay in the range of 124 to 128 °C.

`COc1ccc(F)cc1C(C)(C)CC(O)(CN1CC(=O)Nc2ccccc21)C(F)(F)F` (centres undefined) returned a melting point of 69 to 71 °C.

`CC12CCC(O)CC1=CCC1C2CCC2(C)C(c3cccnc3)=CCC12` (centres undefined) came in with a melting point of 214 to 218 °C.

With `[N-]=[N+]=NC1CC(n2cnc3c(N4CCC4)nc(N)nc32)OC1CO` (centres undefined), the melting point lay in the range of 141 to 143 °C.

As to `COc1cc2c(cc1OC)CN(CC(=O)Nc1ccc(N)cc1)CC2`, the melting point stood at 185 °C.

`CC(C)(C)OC(=O)C(ON)c1ccccc1` (centres undefined) yielded a melting point of 48.2 to 49.6 °C.

The molecule `O=C1C(O)=C(c2ccccc2)CN1Cc1ccco1` had a melting point of 222 to 226 °C.

The molecule `COc1ccccc1CP(CCP(Cc1ccccc1OC)c1ccccc1)c1ccccc1` (centres undefined) yielded a melting point of 102 to 104 °C.

On to `C(=C(c1ccccc1)c1ccccc1)c1ccc2c(c1)Sc1cc(C=C(c3ccccc3)c3ccccc3)ccc1N2c1ccccc1`, for which the melting point fell in the range of 232 to 237 °C.

As to `CCSc1ccccc1N1CCN([C@@H]2Cc3c(OC)ccc(OC)c3C[C@H]2O)CC1` (relative stereo), the melting point fell in the range of 171 to 173 °C.

`O=C(O)c1cccc(-c2cccc(Oc3cc(Cl)cc(Cl)c3)n2)c1` had a melting point of 234 to 235 °C.

`O=[N+]([O-])c1cc(Cl)c(CCN2CCN(c3nsc4ccccc34)CC2)cc1Cl` showed a melting point of 153 to 157 °C.

`CCCCCCCC(=O)ON=C(c1ccccc1)c1cc(C(C)(C)C)c(O)c(C(C)(C)C)c1` showed a melting point of 76.3 to 77.2 °C.

In the case of `Cc1ccc(C(=O)NCc2ccc3c(c2)C(=O)N(C2CCC(=O)NC2=O)C3=O)cc1` (centres undefined), the melting point is 194 to 196 °C.

For `N#Cc1ccc(CBr)c2ccccc12`, the melting point lay in the range of 131 to 133 °C.

Molecule `C#CCn1c(=O)c2ccccc2c(=O)c2ccccc21` yielded a melting point of 117 to 118 °C.

In turn, `CN1C(=O)CCC2=C1CCc1ccc(F)cc12` came in with a melting point of 122 °C.

In the case of `CN(Cc1nc(-c2cc(C(C)(C)C)c(O)c(C(C)(C)C)c2)cs1)c1ccc([N+](=O)[O-])cc1`, the melting point lay within 199 to 201 °C.

Molecule `Cc1cccc(-c2[nH]c(C(C)C)nc2-c2ccc(F)c(-c3ccc4c(c3)CCS4(=O)=O)c2)n1` gave a melting point of 119 to 123 °C.

Regarding `C[C@H](NC(=O)C(SC(=O)c1ccccc1)SC(=O)c1ccccc1)C(=O)O`, the melting point was 161 to 162 °C.

In turn, `O=C1CCC(c2ccccc2)(N2CCCCC2)CC1` had a melting point of 116 to 117 °C.

`Fc1ccc2c(C3CCN(CC4=Cc5cc6c(cc54)OCO6)CC3)noc2c1`: the melting point is 125 to 126 °C.

For the molecule `Cc1cnn(-c2ccc(C(=O)N3C=C4CC=CN4Cc4ccccc43)cc2)c1`, the melting point is 179 to 181 °C.

In turn, `CS(=O)(=O)c1ccc(C(=O)Nc2ccc(-n3nc(C(F)(F)F)cc3C(F)(F)F)cc2)cc1` registered a melting point of 216 to 218 °C.

In turn, `O=[N+]([O-])c1ccc(Cl)nc1-c1ccncc1` came in with a melting point of 137 to 138 °C.

Consider `COc1ccc(/C=C/c2ccc3cc(C(=O)O)ccc3n2)cc1`, for which the melting point was 274 to 277 °C.

Turning to `COc1nc2cc([N+](=O)[O-])c(C)c(C(=O)NCC(=O)OC(C)(C)C)c2nc1OC`, the melting point is 125 to 126 °C.

Turning to `Nc1c(-c2ccc(Oc3ccccc3)cc2)nc2ccccc2c1C(=O)O`, the melting point lay within 218 to 220 °C.

The molecule `N=C(N)N(CCCC(C=O)NC(=O)C1CCCN1C(=O)COc1ccccc1)C(=O)OCc1ccccc1` (centres undefined) registered a melting point of 65 to 78 °C.

Consider `CCOC(=O)C(=O)Nc1c([N+](=O)[O-])sc2cc(OC)ccc12`, for which the melting point fell in the range of 195 to 196 °C.

Take `C=CCOc1cc(CNc2nc(C)nc(C)c2Cl)ccc1O`: the melting point was in the range of 124 to 126 °C.

As for `CN1C(=O)N(c2ccccc2)S[N+]1(C)[O-]` (centres undefined), the melting point lay in the range of 77 to 79 °C.

Consider `O=C(NC(O)C(=O)O)OCc1ccccc1` (centres undefined), for which the melting point was 194 to 198 °C.

`COc1ccc(Cn2nccc2-c2nn(-c3cccc(C(F)(F)F)c3)ccc2=O)cc1` showed a melting point of 159 to 161 °C.

Turning to `CN(C)C(=O)c1ccc(Cl)c(C#N)c1`, the melting point is 193 °C.

Consider `COc1cccc(-c2nc(-c3ccccc3)c3ncc(-c4csc5ccccc45)cc3n2)c1`, for which the melting point is 112 to 113 °C.

For the molecule `CCCCCCCCCCCCCCOc1ccc(COC(=O)NCc2ccccn2)cc1`, the melting point lay in the range of 67 to 68 °C.

On to `CCOC(=O)c1cc2n(n1)CCCO2`, for which the melting point is 44 to 46 °C.

As to `Cc1nc(-c2ccc(C#N)cc2)sc1C(=O)O`, the melting point is 235 to 250 °C.

In turn, `CCOC(=O)c1cc(C)cc([N+](=O)[O-])c1O` returned a melting point of 97 °C.

As to `COC(=O)c1cccc(S(N)(=O)=O)c1I`, the melting point is 155 to 157 °C.

As for `COc1cc(OCCCCN2CCCN(CCCCOc3cc(OC)c(OC)c(OC)c3)CC2)cc(OC)c1OC`, the melting point lay within 124 to 126 °C.

`Oc1ccccc1-c1nc(-c2ccccc2O)n(Cc2ccccc2)n1` displayed a melting point of 166 to 168 °C.

`N#CC1CN1C(=O)NC(=O)c1cc2ccccc2o1` (centres undefined): the melting point lay in the range of 190 to 192 °C.

Molecule `CC(C)(C)c1ccc(CCCCN2CCC(C3(O)c4ccccc4CCc4ccccc43)CC2)cc1` had a melting point of 99 to 101 °C.

`Cc1ccc(S(=O)(=O)c2ccc(C(F)(F)F)cc2NC(=O)N[C@@H](Cc2ccc(NC(=O)c3c(Cl)cccc3Cl)cc2)C(=O)O)cc1` gave a melting point of 233 °C.

With `CCc1cc(O)n2ccnc2n1`, the melting point lay within 93 to 94 °C.

`COCCOC(=O)C1=C(C)Nc2cc[nH]c(=O)c2C1c1ccccc1[N+](=O)[O-]` (centres undefined): the melting point was 265 °C.

The molecule `CCCCCN1C(=O)C(O)(c2ccc3c(c2)OCO3)c2cccnc21` (centres undefined) had a melting point of 104 to 105 °C.

For the molecule `COC(=O)C(O)CCNc1ncc(N)cc1N` (centres undefined), the melting point is 229 to 230 °C.

The molecule `Cc1ccc(-c2ccccc2)c(NC(=N)N2CCOCC2)c1` displayed a melting point of 154 to 155 °C.

Molecule `CC#Cc1ccc(NC(=O)c2ccccc2NCc2ccc(=O)[nH]c2)cc1C(F)(F)F` displayed a melting point of 208 to 212 °C.

In turn, `CCOC(=O)c1nn(C)cc1-c1ccccc1` registered a melting point of 145 °C.

Molecule `CC#CCOCCCCCCCCCCCCOC(=O)C1CC1` registered a melting point of 38 to 40 °C.

`CC(=O)Oc1ccc2c(c1)C(=O)NC(C(Cl)(Cl)Cl)O2` (centres undefined) returned a melting point of 201 to 203 °C.

`O=C(Nc1ccc(F)cc1)NS(=O)(=O)C1CCCC1` showed a melting point of 155 to 157 °C.

In the case of `Nc1c(-c2cc(Cl)ccc2O)c2c(C(F)(F)F)cc(C(F)(F)F)cc2[nH]c1=O`, the melting point lay within 230 to 233 °C.

`COc1ccc2[nH]c(-c3ccc(OC)c4nc(C(F)(F)F)ccc34)nc2c1` came in with a melting point of 131 to 133 °C.

Molecule `CC(C)(C)c1cc(-c2noc(=O)[nH]2)cc(C(C)(C)C)c1O` yielded a melting point of 189 to 191 °C.

As for `Cc1c(CC(=O)O)oc2ccc(F)cc12`, the melting point fell in the range of 129 to 130 °C.

On to `CC1(C)CCC(C)(C)C1OS(C)(=O)=O`, for which the melting point is 46 °C.

Turning to `COc1ccc(/C=C(\C#N)c2cccc(Cl)c2)cc1OC1CCCC1`, the melting point lay in the range of 98 to 100 °C.

`O=C(c1ccc(OCCN2CCCCC2)cc1)c1c(-c2ccc(O)cc2)ccc2ccccc12`: the melting point was 167 to 170 °C.

In turn, `O=C(O)c1[nH]c2cc(Cl)cc(Cl)c2c1C=C1CC(=O)N(c2ccccc2)C1=O` showed a melting point of over 250 °C.

Consider `O=[N+]([O-])c1cc(Cl)c(N=C2NCCCN2)c(Cl)c1`, for which the melting point was found to be 265 °C.

In turn, `CN(CCCNc1ccc(C#N)cc1)C1C2CCC1CN(Cc1ccccc1)C2` (centres undefined) returned a melting point of 91 to 93 °C.

As to `OCCN1CCN(c2ccccn2)CC1`, the melting point lay in the range of 82.5 to 84 °C.

Regarding `COc1ccc(Cn2c(=S)[nH]c(=S)c3[nH]c(C(C)C)nc32)cc1OC1CCCC1`, the melting point was 204 to 206 °C.

Take `CCOc1cc2ncc(C#N)c(NCc3ccc(Cl)c(Cl)c3)c2cc1OCC`: the melting point was in the range of 163 to 165 °C.

As to `O=C(NO)[C@H](CNS(=O)(=O)c1ccc(OCc2ccccc2)cc1)N1CCOCC1`, the melting point was determined as 142 °C.

In turn, `O=C(O)CCc1ccc(C(=O)c2c(-c3ccc(O)cc3)sc3cc(O)ccc23)cc1` came in with a melting point of 244 to 248 °C.

Regarding `CC(=O)Nc1ccc(-c2cc(-c3ccc(NC(C)=O)cc3C)cc(-c3ccc(NC(C)=O)cc3C)c2)c(C)c1`, the melting point was determined as 180 °C.

`COC(=O)C=CCOc1ccc(F)c(C(N)=O)c1F`: the melting point fell in the range of 122 to 123 °C.

For the molecule `COC(=O)n1c(Br)c(Br)c(C#N)c1Br`, the melting point lay within 120 to 122 °C.

For `CCCc1c(OCCCOc2c(C(C)=O)ccc(OCC(=O)O)c2CCC)ccc(C(C)=O)c1O`, the melting point fell in the range of 124 to 125 °C.

For `CC(=O)N1CCCc2c1n(-c1ccccc1)c1c(c2=O)CCc2ccccc2-1`, the melting point was in the range of 178 to 182 °C.

The molecule `NC(=O)c1cccc2c1CC(NCCCc1c[nH]c3ccc(F)cc13)CO2` (centres undefined) gave a melting point of 153 to 155 °C.

Turning to `c1ccc2c(c1)Nc1cc(-c3csc(CN4CCSCC4)n3)ccc1S2`, the melting point fell in the range of 229 to 231 °C.

With `N#Cc1cc(-c2ccc3c(c2)C(C2CC2)(C2CC2)OC(=O)N3)cs1`, the melting point is 244 to 245 °C.

In the case of `COc1ccc(-c2ccc(C(C)=NO)cc2)cc1`, the melting point fell in the range of 82 to 84 °C.

Turning to `O=C1c2ccccc2COc2cc(Cl)ccc21`, the melting point lay within 105 to 106 °C.

Regarding `COc1ccc(CC(=O)O)cc1C(=O)NCc1ccc(C(F)(F)F)cc1`, the melting point was 167 to 168 °C.

As for `O=CC12CC3CC(CC(C3)C1)C2`, the melting point was in the range of 132 to 135 °C.

`CCCNC(=O)C(C#N)=NNc1ccccc1-c1ccccc1` yielded a melting point of 180 to 184 °C.

With `CC1C[C@H]2[C@@H](O1)[C@@H](O)C(=O)N2Cc1ccccc1` (relative stereo), the melting point lay in the range of 98 to 101 °C.
